“Also recorded” adds a separate entry of the source.
System: explants of adipose tissues
Assay: Assay of lipolytic activity: free fatty acids released into the culture medium from adipose tissue explants kept alive
Assay type: cell-based
Conditions: caffeine at a concentration of 0.01% (100 μg/ml)
Protocol: The different extracts are incorporated into the culture medium under the conditions described below.
After a contact time of 8 days, the activity is evaluated by assaying the fatty acids released into the culture medium.
Preparation of 9 explants of adipose tissues and keeping them alive in BEM (BIO-EC's Explants Medium)
Division of the explants into 3 batches of 3 explants: • a reference batch, in the presence of the culture medium • a batch treated with caffeine as a positive reference • a batch treated with an extract according to the invention
At D0 the explants are kept alive in 2 ml of culture medium in which the test extract is incorporated.
This treatment is repeated at D2, D4 and D6.
At D2, D4, D6 and D8 the culture medium is sampled. For each explant the media sampled at D2, D4, D6 and D8 are combined in the same tube and stored at −20° C. for assaying the fatty acids present in the medium.
After extraction of the culture medium, the free fatty acids present therein are separated off and assayed by high performance thin layer chromatography.
The lipolytic activity is evaluated by determining the proportions of free fatty acids released into the culture medium.

## Cn1c(=O)c2c(ncn2C)n(C)c1=O [Caffeine, caffeine]
  lipolytic effect: no longer having a lipolytic effect; also recorded: no longer active
